Measured values as given in patent US20140239906A1, “REDOX-ACTIVE LIGAND-BASED TRANSITION METAL COMPLEX FLOW BATTERIES” (Sandia Corporation, priority 2013, published 2014).

Columns and labels:
[1] = Static cell (H-cell) galvanostatic charge-discharge cycling; settings: 20 mM in acetonitrile, 0.1 M [TBA][PF6]; through cycle 16
Procedure: Cyclic voltammetry (CV) was carried out using a Bio-Logic SP-200 potentiostat, a glassy carbon working electrode, a Pt wire counter electrode and a silver-wire pseudo reference electrode. Ferrocene was used as an internal standard. For static cell battery testing, an H-cell was used containing 20 mM anolyte/catholyte and 100 mM [NBu4][PF6] supporting electrolyte. Charge and discharge currents were 1 mA and 0.1 mA, respectively. Graphite electrodes (POCO) having a 2 cm^2 active area and a Tonen V25EKD separator were used.
A two-compartment cell with non-flowing solutions (i.e., “static cell”) was assembled to assess the charge-discharge characteristics of [V(mnt)3]^2− in a non-aqueous environment. Both compartments contained a 20 mM solution of 1b in acetonitrile with 0.1 M tetrabutylammonium hexafluorophosphate as supporting electrolyte. Two graphite electrodes (POCO) with 2 cm^2 active areas and a V25EKD separator (Tonen) were used. Because the discharged cathode and anode complexes are both in the 2^− oxidation state, it is presumed that the cathode complex converts to the 1^− state and the anode complex converts to the 3^− state during charge.

[2] = Cyclic voltammetry (redox potentials); assay type: physicochemical; settings: 20 mM in CH3CN with 0.1 M [TBA][PF6], 250 mV/s, room temperature; mid-point of anodic and cathodic peak potentials
From the text: Ferrocene was used as an internal standard.
CV of 1b, shown in FIG. 7, is similar to that reported previously for [V(mnt)3]^2− with various cations. Three reversible waves corresponding to the 4^−/3^−, 3^−/2^− and 2^−/1^− redox couples are observed at −1.41 V, −0.227 V and 0.856 V vs. SHE, respectively. Redox potential values reported herein correspond to the mid-point between the anodic and cathodic peak potentials of a cyclic voltammogram. […] Thus, a battery cell constructed using 1 as both anolyte and catholyte has a theoretical cell potential of […] and a theoretical energy density of 13 W·h·L^−1. However, bulk reduction of [V(mnt)3]^2− to [V(mnt)3]^3− in the anodic half-cell before charging would result in a theoretical cell potential and energy density of 2.3V and 28 W·h·L^−1, respectively. These values compare favorably to previously reported non-aqueous RFB electrolytes. A RFB based on [V(mnt)3]^2− solutions would also benefit from having the same chemical species in both half-cells, a strategy that has been employed previously to prevent irreversible self-discharge from crossover of active redox species through the membrane. This feature then also enables the use of inexpensive, microporous separators that are not ion-selective.

[3] = Solubility in acetonitrile by UV-vis spectroscopy; assay type: physicochemical; settings: absorbance at 568 nm, Beers law
Procedure: Solutions were prepared by mixing roughly equal volumes of metal complex and solvent. The resulting black solution was concentrated with a stream of N2 until a slight crust began to form, which was re-dissolved with warming and agitation. The sample was then centrifuged at 8000 RPM for two hours and allowed to stand overnight. Concentrations were determined using absorbance at 568 nm, ε568=4540 M^−1cm^−1.

[4] = Stability under air (solid and acetonitrile solution), CV and UV-vis; assay type: physicochemical
From the text: Long-term stability is a key consideration in the development of RFB systems and recent research has included extensive investigations of state-of-the-art aqueous RFB systems. Factors affecting stability and the decay of capacity including membrane chemistry, thermal effects, gas evolution and electrode corrosion have been identified and this remains an active research area. In comparison, the long-term stability of non-aqueous RFBs remains to be investigated. […] To investigate its stability in solution, a 1 mM acetonitrile solution was analyzed, stored for a period of one week under air atmosphere, and subsequently analyzed. […] Long-term studies to investigate the stability of the membrane, electrode and electrolytes have been initiated.

| SMILES | electrochemical yield (faradaic efficiency) of charge cycles, stabilized [1] | redox potential 2−/1− couple [2] [V vs. SHE] | redox potential 3−/2− couple [2] [V vs. SHE] | redox potential 4−/3− couple [2] [V vs. SHE] | maximum solubility [3] [mM] | stability in solution (CV and UV-vis spectroscopy) ([4]; 1 mM acetonitrile solution, one week under air atmosphere) | stability as prepared to ambient oxygen and moisture ([4]; as prepared, stored under air) |
| --- | --- | --- | --- | --- | --- | --- | --- |
| CC[N+](CC)(CC)CC.CC[N+](CC)(CC)CC.N#CC([S-])=C([S-])C#N.N#CC([S-])=C([S-])C#N.N#CC([S-])=C([S-])C#N.[V+4] [1b] | 20-25% | 0.856 | −0.227 | −1.41 | ~900 |  |  |
| C[N+](C)(C)C.C[N+](C)(C)C.N#CC([S-])=C([S-])C#N.N#CC([S-])=C([S-])C#N.N#CC([S-])=C([S-])C#N.[V+4] [1a] |  |  |  |  |  | unchanged | no decomposition was observed |
